Starred links: 1 amine or outer side, 2 acyl side, 3 side chain; linkers in the order of their positions; H or OH if unused. Non-standard residues stand in square brackets, D forms with d. Residues, ends and D or L forms follow the SMILES beside them. Groups on a side chain read outwards from the residue. dPhe(4-NHCONH2) = NC(=O)Nc1ccc(C[C@@H](N)C(=O)O)cc1; Phe(4-NHCONH2) = NC(=O)Nc1ccc(C[C@H](N)C(=O)O)cc1; dPhe(4-NH2) = Nc1ccc(C[C@@H](N)C(=O)O)cc1; dPhe(4-Cl) = N[C@H](Cc1ccc(Cl)cc1)C(=O)O; Phe(4-NH2) = Nc1ccc(C[C@H](N)C(=O)O)cc1; d2Nal = N[C@H](Cc1ccc2ccccc2c1)C(=O)O; Lys(iPr) = CC(C)NCCCC[C@H](N)C(=O)O; d3Pal = N[C@H](Cc1cccnc1)C(=O)O; CO = O=C([*:1])[*:2]
Experiments:
[1] = system: secretion of LH; test: in vivo rat LH suppression test (circulating LH levels in castrated male rats after sc injection); design: species or system castrated male Sprague-Dawley rats; details: for suppression of LH compared with Acyline at days 3 and 4 (72 and 96 hours; after the first 2 days): days 3-4; for effectiveness in suppression of LH compared with Acyline, day 1 through day 3: days 1-3; for effectiveness in suppression of LH compared with Acyline, first two days: days 1-2; for effectiveness in suppression of LH compared with Acyline, day 1 through day 4 (96 hours): days 1-4
Protocol: The peptide is assayed in vivo to determine its effectiveness to suppress the secretion of LH in rats. Measurement of circulating LH levels in castrated male Sprague-Dawley rats treated subcutaneously with the peptide is carried out as reported in C. Rivier et al. Biol. Reproduc., 1983, 29, 374-378. The peptides are first dissolved at a concentration of 1.0 or 10 mg/ml in bacteriostatic water and then further diluted in 0.04 M phosphate buffer containing 0.1% BSA. Subsequent dilutions are made in phosphate buffer. The peptides are injected sc into 5 rats, and blood samples (300 μl) are collected under metotane anesthesia. Sera (50 μl) are tested for LH levels in duplicate using reagents provided by the National Pituitary and Hormone Distribution Program of the NIDDK.

[2] = hydrophilicity by RP-HPLC retention time (TEAP pH 7.0 / CH3CN gradient); type: physicochemical; details: for hydrophilicity compared with Azaline B: RP-HPLC elution

## Ac-β-D-2Nal-D-4Cpa-D-3Pal-Ser-4Amf(hydroorotyl)-D-4Aph(methylcarbamoyl)-Leu-Lys(isopropyl)-Pro-D-Ala-NH2 [Example 6B]
[1]; 50 micrograms sc
  activity in suppression of LH secretion compared with Acyline after 1 day: as active as Acyline
  activity in suppression of LH secretion compared with Acyline after 2 days: about as active
  suppression of LH compared with Acyline at days 3 and 4 (72 and 96 hours; after the first 2 days): significantly lesser degree of suppression

## Ac-β-D-2Nal-D-4Cpa-D-3Pal-Ser-4Aph(hydroorotyl)-D-4Aph(D-hydroorotyl)-Leu-Lys(isopropyl)-Pro-D-Ala-NH2 [Example 1H]
[1]; 50 micrograms sc
  duration of bioactivity for the suppression of LH (rating in words): very long-acting
  effectiveness in suppression of LH compared with Acyline, day 1 through day 3: about as effective as Acyline
[1]; 50 micrograms sc, 96 hours
  suppression of LH compared with Acyline at 96 hours / 4 days (after day 3): substantially more effective than Acyline
[2]
  hydrophilicity compared with Azaline B: more hydrophilic than Azaline B

## Acetyl-β-D-2Nal-D-4Cpa-D-3Pal-Ser-4Aph(hydroorotyl)-D-3Pal-Leu-Lys(isopropyl)-Pro-D-Ala-NH2 [Example 1K]
[1]; 50 micrograms sc
  duration of bioactivity for the suppression of LH (rating in words): very long-acting
  effectiveness in suppression of LH compared with Acyline, day 1 through day 3: about as effective as Acyline
[1]; 50 micrograms sc, 96 hours, comparator Acyline 50 micrograms
  LH levels after 96 hours as percentage of the LH levels of rats injected with Acyline: about 35%

## Ac-D-2Nal-D-4Cpa-D-3Pal-Ser-4Aph(D-hydroorotyl)-D-4Amf(Cbm)-Leu-ILys-Pro-D-Ala-NH2 [Example 5]
[1]; 50 micrograms sc
  effectiveness in suppression of LH compared with Acyline, first two days: about as long as Acyline
  suppression of LH compared with Acyline at days 3 and 4 (72 and 96 hours; after the first 2 days): some lesser degree of suppression

## Ac-β-D-2Nal-D-Cpa-D-3Pal-Ser-4Aph(D/L-hydroorotyl)-D-4Aph(acetyl)-Leu-Lys(isopropyl)-Pro-D-Ala-NH2 [Example 1C]
[1]; 50 micrograms sc
  duration of bioactivity for the suppression of LH (rating in words): long-acting
  effectiveness in suppression of LH compared with Acyline, day 1 through day 4 (96 hours): about as effective as Acyline

## Ac-β-D-2Nal-D-4Cpa-D-3Pal-Ser-4Amf(hydroorotyl)-D-4Aph(acetyl)-Leu-Lys(isopropyl)-Pro-D-Ala-NH2 [Example 1F]
[1]; 50 micrograms sc
  duration of bioactivity for the suppression of LH (rating in words): long-acting
  effectiveness in suppression of LH compared with Acyline, day 1 through day 4 (96 hours): about as effective as Acyline

## Ac-D-2Nal-D-4Cpa-D-3Pal-Ser-4Aph(L-Imz)-D-4Amf(carbamoyl)-Leu-ILys-Pro-D-Ala-NH2 [Example 3B]
[1]; 50 micrograms sc
  duration of bioactivity for the suppression of LH (rating in words): long duration
  effectiveness in suppression of LH compared with Acyline, day 1 through day 3: substantially the same as Acyline
[1]; 50 micrograms sc, 96 hours
  suppression of LH compared with Acyline at 96 hours / 4 days (after day 3): somewhat superior

## Ac-D-2Nal-D-4Cpa-D-3Pal-Ser-4Aph(D-hydroorotyl)-D-4Amf(Ac)-Leu-ILys-Pro-D- Ala-NH2 [Example 5A]
[1]; 50 micrograms sc, 96 hours
  suppression of LH compared with Acyline at 96 hours / 4 days (after day 3): somewhat superior to Acyline
[1]; 50 micrograms sc
  effectiveness in suppression of LH compared with Acyline, day 1 through day 3: substantially the same as Acyline

## Ac-D-2Nal-D-4Cpa-D-3Pal-Ser-4Aph(hydroorotyl)-D-4Amf(MeCbm)-Leu-ILys-Pro-D-Ala-NH2 [Example 4]
[1]; 50 micrograms sc
  duration of bioactivity for the suppression of LH (rating in words): very long-acting
  suppression of LH secretion compared with Acyline (time not given): better suppression of LH secretion than Acyline

## Ac-D-2Nal-D-4Cpa-D-3Pal-Ser-4Aph(hydroorotyl)-D-Cit-Leu-ILys-Pro-D-Ala-NH2 [Example 2]
[1]; tested as in Example 1, 3 days
  suppression of LH at 3 days (comparator apparently Cetrorelix): marginally better
[1]; tested as in Example 1, 96 hours
  suppression of LH at 96 hours (comparator apparently Cetrorelix): substantially better
[1]; tested as in Example 1, dose not given
  duration of bioactivity for suppression of LH secretion compared with Cetrorelix: as long duration of bioactivity as Cetrorelix
[2]
  hydrophilicity compared with Cetrorelix: more hydrophilic than Cetrorelix

## Ac-β-D-2Nal-D-4Cpa-D-3Pal-Ser-4Amf(hydroorotyl)-D-4Amf(acetyl)-Leu-Lys(isopropyl)-Pro-D-Ala-NH2 [Example 6]
[1]; 50 micrograms sc
  duration of bioactivity for the suppression of LH (rating in words): long-acting
  effectiveness in suppression of LH compared with Acyline, first two days: about the same as Acyline
  suppression of LH compared with Acyline at days 3 and 4 (72 and 96 hours; after the first 2 days): nearly equal to that of Acyline

## Ac-D-2Nal-D-4Cpa-D-3Pal-Ser-4Aph(D/L-2-imidazolidone-4-carbonyl)-D-4Aph(Ac)-Leu-ILys-Pro-D-Ala-NH2 [Example 3]
[1]; 50 micrograms sc
  duration of bioactivity for the suppression of LH (rating in words): long duration
  suppression of LH compared with Acyline at days 3 and 4 (72 and 96 hours; after the first 2 days): marginally better

## CC(=O)N[C@H](Cc1ccc2ccccc2c1)C(=O)N[C@H](Cc1ccc(Cl)cc1)C(=O)N[C@H](Cc1cccnc1)C(=O)N[C@@H](CO)C(=O)N[C@@H](Cc1ccc(NC(N)=O)cc1)C(=O)N[C@H](Cc1ccc(NC(N)=O)cc1)C(=O)N[C@@H](CC(C)C)C(=O)N[C@@H](CCCCNC(C)C)C(=O)N1CCC[C@H]1C(=O)N[C@H](C)C(N)=O [Example 1L, Ac-β-D-2Nal-D-4Cpa-D-3Pal-Ser-4Aph(carbamoyl)-D-4Aph(carbamoyl)-Leu-Lys(isopropyl)-Pro-D-Ala-NH2] (Ac-[d2Nal][dPhe(4-Cl)][d3Pal]S[Phe(4-NHCONH2)][dPhe(4-NHCONH2)]L[Lys(iPr)]P[dA]-NH2)
[1]; 50 micrograms sc
  duration of bioactivity for the suppression of LH (rating in words): long-acting
  effectiveness in suppression of LH compared with Acyline, day 1 through day 4 (96 hours): about as effective as Acyline

## Ac-β-D-2Nal-D-Cpa-D-3Pal-Ser-4Aph(D-hydroorotyl)-D-4Aph(acetyl)-Leu-Lys(isopropyl)-Pro-D-Ala-NH2 [Example 1D]
[1]; 50 micrograms sc
  duration of bioactivity for the suppression of LH (rating in words): long-acting
  effectiveness in suppression of LH compared with Acyline, day 1 through day 4 (96 hours): about as effective as Acyline

## Ac-β-D-2Nal-D-4Cpa-D-3Pal-Ser-4Amf(D-hydroorotyl)-D-4Aph(acetyl)-Leu- Lys(isopropyl)-Pro-D-Ala-NH2 [Example 6C]
[1]; 50 micrograms sc, 3 days
  activity in suppression of LH secretion compared with Acyline after 3 days: substantially less effective than Acyline
[1]; 50 micrograms sc, 96 hours
  suppression of LH compared with Acyline at 96 hours / 4 days (after day 3): continues to significantly drop in biopotency
[1]; 50 micrograms sc
  effectiveness in suppression of LH compared with Acyline, first two days: substantially as effective

## methylcarbamoyl-β-D-2Nal-D-4Cpa-D-3Pal-Ser-4Aph(hydroorotyl)-D-4Aph(acetyl)-Leu-Lys(isopropyl)-Pro-D-Ala-NH2 [Example 1J]
[1]; 50 micrograms sc
  duration of bioactivity for the suppression of LH (rating in words): very long-acting
  effectiveness in suppression of LH compared with Acyline, day 1 through day 3: about as effective as Acyline
[1]; 50 micrograms sc, 96 hours
  how much more effective than Acyline in suppression of LH after 96 hours: ~50%
[2]
  hydrophilicity compared with Azaline B: more hydrophilic than Azaline B

## Ac-β-D-2Nal-D-4Cpa-D-3Pal-Ser-4Amf(hydroorotyl)-D-4Aph(carbamoyl)-Leu-Lys(isopropyl)-Pro-D-Ala-NH2 [Example 6A]
[1]; 50 micrograms sc
  activity in suppression of LH secretion compared with Acyline after 1 day: as active as Acyline
  activity in suppression of LH secretion compared with Acyline after 2 days: nearly as active
[1]; 50 micrograms sc, 3 days
  activity in suppression of LH secretion compared with Acyline after 3 days: somewhat less active
[1]; 50 micrograms sc, 96 hours
  suppression of LH compared with Acyline at 96 hours / 4 days (after day 3): about the same activity as Acyline

## CNC(=O)Nc1ccc(C[C@H](NC(=O)[C@H](CO)NC(=O)[C@@H](Cc2cccnc2)NC(=O)[C@@H](Cc2ccc(Cl)cc2)NC(=O)[C@@H](Cc2ccc3ccccc3c2)NC(C)=O)C(=O)N[C@H](Cc2ccc(NC(=O)NC)cc2)C(=O)N[C@@H](CC(C)C)C(=O)N[C@@H](CCCCNC(C)C)C(=O)N2CCC[C@H]2C(=O)N[C@H](C)C(N)=O)cc1 [Example 1M, Ac-β-D-2Nal-D-4Cpa-D-3Pal-Ser-4Aph(methylcarbamoyl)-D-4Aph(methylcarbamoyl)-Leu-Lys(isopropyl)-Pro-D-Ala-NH2] (Ac-[d2Nal][dPhe(4-Cl)][d3Pal]S[Phe(4-NH2)]([CO-NHMe])[dPhe(4-NH2)]([CO-NHMe])L[Lys(iPr)]P[dA]-NH2)
[1]; 50 micrograms sc
  effectiveness in suppression of LH compared with Acyline, first two days: about as effective as Acyline
  suppression of LH compared with Acyline at days 3 and 4 (72 and 96 hours; after the first 2 days): begins to drop off somewhat

## Ac-β-D-2Nal-D-4Cpa-D-3Pal-Ser-4Aph(hydroorotyl)-D-4Aph(hydroorotyl)-Leu-Lys(isopropyl)-Pro-D-Ala-NH2 [Example 1G]
[1]; 50 micrograms sc
  duration of bioactivity for the suppression of LH (rating in words): long-acting
  effectiveness in suppression of LH compared with Acyline, day 1 through day 4 (96 hours): about as effective as Acyline
[2]
  hydrophilicity compared with Azaline B: more hydrophilic than Azaline B

## Ac-β-D-2Nal-D-Cpa-D-3Pal-Ser-4Aph(hydroorotyl)-D-4Aph(acetyl)-Leu-Lys(isopropyl)-Pro-D-Ala-NH2 [Example 1B]
[1]; 50 micrograms sc
  duration of bioactivity for the suppression of LH (rating in words): very long-acting
  effectiveness in suppression of LH compared with Acyline, day 1 through day 4 (96 hours): about as effective as Acyline

From patent publication US5925730A, “GnRH antagonists” (Ferring BV, priority 1997, dated 1999)
